# Results: patent publication US20100130599A1 (priority 2008, published 2010)
# Like-named read-outs stand apart in the source and are kept apart here.
# Assays:
# CYP2C9*8 [1] = target: T1, CYP2C9*8 (Homo sapiens, UniProt P11712, R150H); set-up: host or cells: human subjects carrying the CYP2C9*8 allele (in vivo phenotyping); details: CYP2C9*8 allele, cited from earlier work
# [2] = Excerpt: A total of 226 African American patients having demographic and clinical parameters as depicted in Table 1 were studied.
# Patients were enrolled from the pharmacist-managed anticoagulation clinics at the University of Illinois Medical Center at Chicago and at the University of Florida in Gainesville. […] Aquilante, C. […] Pharmacogenomics 8, 1535-44 (2007). Patients with a history of liver dysfunction or serum transaminase levels greater than 3 times the upper limit of normal were excluded.
# After obtaining written informed consent and authorization for medical record review, a buccal cell sample was collected for genetic analysis, as previously described. Andrisin, T. E., Humma, L. M. & Johnson, J. A. Collection of genomic DNA by the noninvasive mouthwash method for use in pharmacogenetic studies. Pharmacotherapy 22, 954-60 (2002). Demographic, clinical, and social history were assessed through patient interview and review of the medical record. This study was approved by the Institutional Review Board at each institution.
# Genomic DNA was isolated from buccal cells using a commercially available kit (PureGene,® Qiagen, Valencia, Calif.) according to kit manufacturer instructions. The CYP2C9 R144C (*2), […] (*3) and D360E (*5) alleles and VKORC1 −1639G>A genotype were determined as previously described. Aquilante, C. […] Clin Pharmacol Ther 79, 291-302 (2006); Hruska, M. W., Frye, R. F. & Langaee, T. Y. Pyrosequencing method for genotyping cytochrome P450 CYP2C8 and CYP2C9 enzymes. Clin Chem 50, 2392-5 (2004). The VKORC1 −4451A>C, 497G>T, and 3730A>G genotypes, and APOE 112C>T and 158C>T genotypes were determined by PCR and pyrosequencing. PCR and sequencing primers used were per Table 6.
# Prior to determination of additional genotypes, genomic DNA was amplified by the whole genome amplification (WGA) technique, using the REPLI-g midi kit (Qiagen). Dean, F. B. et al. Comprehensive human genome amplification using multiple displacement amplification. Proc Natl Acad Sci USA 99, 5261-6 (2002) The fidelity of amplification was verified by comparing genotypes for CYP2C9*2, *3, *5 and VKORC1 −1639G>A determined before and after WGA. […] Reed, M. R. & Coty, W. A. in Microarrays: Preparation, Detection Methods, Data Analysis, and Applications (eds. Dill, K., Liu, R. & Grodzinski, P.) 247-60 (Springer-Verlag/Kluwer, 2009). The CYP2C9*8 genotype was determined by bi-directional DNA sequencing at Agencourt Biosciences after uniplex PCR amplification performed by Osmetech Molecular Diagnostics.
# Data are expressed as numbers (percentages), mean±SD, or median (inter-quartile range). Height and weight were used to calculate body surface area (BSA). […] Hardy Weinberg Equilibrium (HWE) assumption was tested by χ^2 analysis. […] Dickmann, L. J. et al. Identification and functional characterization of a new CYP2C9 variant (CYP2C9*5) expressed among African Americans. Mol Pharmacol 60, 382-7 (2001); Allabi, A. C., Gala, J. L. & Horsmans, Y. CYP2C9, CYP2C19, ABCB1 (MDR1) genetic polymorphisms and phenytoin metabolism in a Black Beninese population. Pharmacogenet Genomics 15, 779-86 (2005); Blaisdell, J. et al. Discovery of new potentially defective alleles of human CYP2C9. Pharmacogenetics 14, 527-37 (2004) Carriers of a variant CYP2C9*8 allele were initially analyzed separately because of uncertainty regarding the functional effects of this allele.
# CYP2C9*8 [3] = target: T1, CYP2C9*8; details: cited from earlier work
smiles,measurement,setting,value
O=C1NC(=O)C(c2ccccc2)(c2ccccc2)N1 [phenytoin],urinary excretion of phenytoin metabolite,CYP2C9*8 [1]; clinical study,reduced urinary excretion
same,effect of *8 on in vivo metabolism,CYP2C9*8 [1]; in vivo,decreases in vivo metabolism
CC(=O)CC(c1ccccc1)c1c(O)c2ccccc2oc1=O (stereo not drawn) [warfarin],Median (IQR) dose,"[2]; APOE ε2/ε2, n=4",35.5 (34.3-38.9) mg/week
same,Median (IQR) dose,"[2]; APOE ε2/ε3, n=36",40.0 (30.0-49.7) mg/week
same,Median (IQR) dose,"[2]; APOE ε2/ε4, n=6",61.3 (38.4-70.0) mg/week
same,Median (IQR) dose,"[2]; APOE ε3/ε3, n=102",40.0 (32.1-52.5) mg/week
same,Median (IQR) dose,"[2]; APOE ε3/ε4, n=60",43.8 (32.4-56.3) mg/week
same,Median (IQR) dose,"[2]; APOE ε4/ε4, n=9",45.0 (40.0-52.5) mg/week
same,"warfarin dose, median (IQR)",[2]; APOE ε4 carriers,45.0 (33.1-56.3) mg/week
same,"warfarin dose, median (IQR)",[2]; APOE ε4 homozygotes,45.0 (40.0-52.5) mg/week
same,Median (IQR) dose,"[2]; CYP2C9 *1/*1, n=171",42.5 (35.0-56.3) mg/week
same,Median (IQR) dose,"[2]; CYP2C9 *1/*8 or *8/*8, n=24",34.4 (29.5-47.3) mg/week
same,Median (IQR) dose,"[2]; CYP2C9 *2, *3, *5, *6, or *11 allele, n=28",33.1 (28.0-40.0) mg/week
same,Median (IQR) dose,"[2]; CYP4F2 V433M M/M, n=3",37.5 (28.8-56.3) mg/week
same,Median (IQR) dose,"[2]; CYP4F2 V433M V/M, n=26",40.0 (35.3-51.9) mg/week
same,Median (IQR) dose,"[2]; CYP4F2 V433M V/V, n=194",41.6 (32.5-55.0) mg/week
same,Median (IQR) dose,"[2]; VKORC1 497T > G GG, n=1",36.0 — mg/week
same,Median (IQR) dose,"[2]; VKORC1 497T > G TG, n=16",35.0 (27.5-36.3) mg/week
same,Median (IQR) dose,"[2]; VKORC1 497T > G TT, n=208",42.0 (32.5-56.1) mg/week
same,Median (IQR) dose,"[2]; VKORC1 −1639G > A GA, n=33",35.0 (27.5-42.5) mg/week
same,Median (IQR) dose,"[2]; VKORC1 −4451C > A AA, n=3",28.0 (26.5-30.3) mg/week
same,Median (IQR) dose,"[2]; VKORC1 −4451C > A CA, n=22",42.5 (31.0-55.6) mg/week
same,Median (IQR) dose,"[2]; VKORC1 −4451C > A CC, n=200",40.0 (32.5-55.0) mg/week
same,Median (IQR) dose,"[2]; VKORC1.3730A > G AA, n=45",42.0 (32.5-55.0) mg/week
same,Median (IQR) dose,"[2]; VKORC1.3730A > G GA, n=121",42.0 (34.0-56.3) mg/week
same,Median (IQR) dose,"[2]; VKORC1.3730A > G GG, n=60",37.5 (30.0-47.5) mg/week
same,Average INR,"[2]; all patients (n = 226) on stable warfarin dose, mean ± SD",2.5 ± 0.3
same,Therapeutic warfarin dose,"[2]; all patients (n = 226), median (IQR)",40.0 (32.5-55.0) mg/week
same,"warfarin dose, median (IQR)","[2]; individuals with a CYP2C9*5, *6, *8, or *11 allele, n=40",35.0 mg/wk
same,"warfarin dose, median (IQR)",[2]; non-c4 homozygotes,40.0 (32.0-55.0) mg/week
same,"warfarin dose, median (IQR)",[2]; non-ε4 carriers,40.0 (32.0-52.5) mg/week
same,median daily warfarin dose,"[2]; study population, median (range)",5.7 mg
CCCCc1nc(Cl)c(CO)n1Cc1ccc(-c2ccccc2-c2nnn[nH]2)cc1 [Losartran],effect of *8 on in vivo metabolism,CYP2C9*8 [3],little effect
